Source: article PMC6009932, “Small molecule purine and pseudopurine derivatives: synthesis, cytostatic evaluations and investigation of growth inhibitory effect in non-small cell lung cancer A549” (Journal of Enzyme Inhibition and Medicinal Chemistry, 2017)
pIC50: −log10 of the molar value.

Assays:
[1] = system: HeLa (cervical carcinoma); test: Proliferation assay (MTT, 72 h) on HeLa; format: cell-based; conditions: Homo sapiens
Procedure: (§1) Human carcinoma cell lines A549 (lung carcinoma), HeLa (cervical carcinoma), SW620 (colorectal adenocarcinoma, metastatic), and CFPAC-1 (pancreatic cancer, derived from metastatic: liver), normal human lung (WI38) and foreskin (HFF-1) fibroblasts were obtained from the American Type Culture Collection (ATCC). Cells were cultured in humidified atmosphere at 37 °C with 5% CO2. As growth medium, Dulbecco’s modified Eagle medium (DMEM) was used with the addition of foetal bovine serum (10%), L-glutamine (2 mM) and antibiotics: streptomycin (100 µg/ml) and penicillin (100 U/ml).
(§2) Cells were seeded onto 96-well microtiter plates at a seeding density of 3000 cells/well for carcinoma cell lines, and 5000 cells/well for normal human fibroblasts. The next day, cells were treated with test agents in five different concentrations (0.01–100 µM) and further incubated for 72 h. […] Following 72 h incubation, the MTT assay was performed and measured absorbances were transformed into percentage of cell growth as described previously. Results were obtained from three independent experiments. IC50 values were calculated using linear regression analysis and results were statistically analysed by ANOVA, Tukey post-hoc test (p < .05).

[2] = system: WI38 normal human lung fibroblasts; test: Proliferation assay (MTT, 72 h) on normal lung fibroblasts WI38; format: cell-based; conditions: WI-38, read-out: IC50 WI38/HFF-1 (WI38)
Procedure: as §1, §2

[3] = system: CFPAC-1 (ductal pancreatic adenocarcinoma); test: Proliferation assay (MTT, 72 h) on CFPAC-1; format: cell-based; conditions: Homo sapiens
Procedure: as §1, §2

[4] = system: SW620 (colorectal adenocarcinoma, metastatic); test: Proliferation assay (MTT, 72 h) on SW620; format: cell-based; conditions: Homo sapiens, SW-620
Procedure: as §1, §2

A549 (lung carcinoma) = test: Proliferation assay (MTT, 72 h) on A549; format: cell-based; conditions: Homo sapiens, A549 lung adenocarcinoma
Procedure: as §1, §2

pIC50 [1]	pIC50 [3]	pIC50 [4]	pIC50 (A549 (lung carcinoma))	melting point	Compound	pIC50 [2]
4.47	4.48	4.41	4.27		Fc1ccc(-n2cc(Cn3cnc4c(Cl)ncnc43)nn2)cc1 [Compound 4a, 6-Chloro-9-{[1–(4-fluorophenyl)-1 H-1,2,3-triazol-4-yl]methyl}-9 H-purine]	5.28
4.91	5.10	4.83	4.80		FC(F)(F)c1ccc(-n2cc(Cn3cnc4c(Cl)ncnc43)nn2)cc1 [Compound 4c, 6-Chloro-9-{[1-(4-(trifluoromethyl)phenyl)-1H-1,2,3-triazol-4-yl]methyl}-9H-purine]	6.12
4.48	4.51	4.38	4.26	143 to 145 °C	Fc1ccccc1-n1cc(Cn2cnc3c(Cl)ncnc32)nn1 [Compound 4d, 6-Chloro-9-{[1-(2-fluorophenyl)-1H-1,2,3-triazol-4-yl]methyl}-9H-purine]	4.62
4.24	< 4.00	4.03	4.05		O=c1cc(Cn2cc(Cn3cnc4c(Cl)ncnc43)nn2)c2ccc(O)cc2o1 [Compound 4e, 4-{[4-((6-Chloro-9H-purin-9-yl)methyl)-1H-1,2,3-triazol-1-yl]methyl}-7-hydroxy-2H-chromen-2-one]	5.18
4.65	5.13	4.93	5.03	151 to 154 °C	FC(F)(F)c1ccc(-n2cc(Cn3cnc4c(Cl)nccc43)nn2)cc1 [Compound 5c, 4-Chloro-1-{[1-(4-(trifluoromethyl)phenyl)-1H-1,2,3-triazol-4-yl]methyl}-1H-imidazo[4,5-c]pyridine]	5.28
< 4.00	< 4.00	4.04	4.13	124 to 127 °C	Fc1ccccc1-n1cc(Cn2cnc3c(Cl)nccc32)nn1 [Compound 5d, 4-Chloro-1-{[1–(2-fluorophenyl)-1H-1,2,3-triazol-4-yl]methyl}-1H-imidazo[4,5-c]pyridine]	4.62
< 4.00	< 4.00	< 4.00	< 4.00		O=c1cc(Cn2cc(Cn3cnc4c(Cl)nccc43)nn2)c2ccc(O)cc2o1 [Compound 5e]	4.22
< 4.00	< 4.00	< 4.00	< 4.00	> 250 °C	O=c1cc(Cn2cc(Cn3cnc4ncnc(Cl)c43)nn2)c2ccc(O)cc2o1 [Compound 6e, 4-{[4-((6-Chloro-7H-purin-7-yl)methyl)-1H-1,2,3-triazol-1-yl]methyl}-7-hydroxy-2H-chromen-2-one]	4.13
4.43	4.05	4.16	< 4.00	183 to 185 °C	FC(F)(F)c1ccc(-n2cc(Cn3cnc4ccnc(Cl)c43)nn2)cc1 [Compound 7c, 4-Chloro-3-{[1-(4-(trifluoromethyl)phenyl)-1H-1,2,3-triazol-4-yl]methyl}-3H-imidazo[4,5-c]pyridine]	4.71
5.06	< 4.00	< 4.00	< 4.00		O=c1cc(Cn2cc(Cn3cnc4ccnc(Cl)c43)nn2)c2ccc(O)cc2o1 [Compound 7e, 4-{[4-((4-Chloro-3H-imidazo[4,5-c]pyridin-3-yl)methyl)-1H-1,2,3-triazol-1-yl]methyl}-7-hydroxy-2H-chromen-2-one]	5.12
4.40	4.32	5.07	4.07		Fc1ccc(-n2cc(Cn3ccc4c(Cl)ncnc43)nn2)cc1 [Compound 8a, 4-Chloro-7-{[1-(4-fluorophenyl)-1H-1,2,3-triazol-4-yl]methyl}-7H-pyrrolo[2,3-d]pyrimidine]	4.49
4.18	4.32	4.35	4.19		Clc1ccc(-n2cc(Cn3ccc4c(Cl)ncnc43)nn2)cc1 [Compound 8b, 4-Chloro-7-{[1-(4-chlorophenyl)-1H-1,2,3-triazol-4-yl]methyl}-7H-pyrrolo[2,3-d]pyrimidine]	4.68
4.41	4.33	4.43	4.33		FC(F)(F)c1ccc(-n2cc(Cn3ccc4c(Cl)ncnc43)nn2)cc1 [Compound 8c, 4-Chloro-7-{[1-(4-(trifluoromethyl)phenyl)-1H-1,2,3-triazol-4-yl]methyl}-7H-pyrrolo[2,3-d]pyrimidine]	5.34
4.08	4.45	4.18	4.16	112 to 114 °C	Fc1ccccc1-n1cc(Cn2ccc3c(Cl)ncnc32)nn1 [Compound 8d, 4-Chloro-7-{[1-(2-fluorophenyl)-1H-1,2,3-triazol-4-yl]methyl}-7H-pyrrolo[2,3-d]pyrimidine]	4.65
4.47	4.44	4.13	4.16	202 to 204 °C	O=c1cc(Cn2cc(Cn3ccc4c(Cl)ncnc43)nn2)c2ccc(O)cc2o1 [Compound 8e, 4-{[4-((4-Chloro-7H-pyrrolo[2,3-d]pyrimidin-7-yl)methyl)-1H-1,2,3-triazol-1-yl]methyl}-7-hydroxy-2H-chromen-2-one]	4.40
< 4.00	< 4.00	< 4.00	< 4.00		Fc1ccc(-n2cc(Cn3ccc4cc(F)ccc43)nn2)cc1 [Compound 10a, 1-{[1-(4-Fluorophenyl)-1H-1,2,3-triazol-4-yl]methyl}-5-fluoro-1H-indole]	< 4.00
4.08	< 4.00	< 4.00	< 4.00		Fc1ccc2c(ccn2Cc2cn(-c3ccccc3F)nn2)c1 [Compound 10d, 5-Fluoro-1-{[1-(2-fluorophenyl)-1H-1,2,3-triazol-4-yl]methyl}-1H-indole]	< 4.00
4.14	4.06	4.00	4.12		Fc1ccc(-n2cc(Cn3cnc4ccccc43)nn2)cc1 [Compound 12a, 1-{[1-(4-fluorophenyl)-1H-1,2,3-triazol-4-yl]met-hyl}-1H-benzo[d]imidazole]	4.04
4.51	4.25	< 4.00	4.85		FC(F)(F)c1ccc(-n2cc(Cn3cnc4ccccc43)nn2)cc1 [Compound 12c, 1-{[1–(4-(trifluoromethyl)phenyl)-1H-1,2,3-triazol-4-yl]methyl}-1H-benzo[d]imidazole]	< 4.00
4.66	4.46	< 4.00	4.44		Fc1ccccc1-n1cc(Cn2cnc3ccccc32)nn1 [Compound 12d, 1-{[1–(2-fluorophenyl)-1H-1,2,3-triazol-4-yl]methyl}-1H-benzo[d]imidazole]	4.51
< 4.00	< 4.00	< 4.00	< 4.00		O=c1cc(Cn2cc(Cn3cnc4ccccc43)nn2)c2ccc(O)cc2o1 [Compound 12e, 4-{4-[((1H-benzo[d]imidazol-1-yl)methyl)-1H-1,2,3-triazol-1-yl]methyl}-7-hydroxy-4a,8a-dihydro-2H-chromen-2-on]	< 4.00
